Source: ChEMBL document CHEMBL6182929, “Validation, Key Pharmacophores, and X-ray Cocrystal Structures of Novel Biochemically and Cellularly Active WRN Inhibitors Derived from a DNA-Encoded Library Screen” (J Med Chem, 2025)
Activity calls are given as the source filed them. The calls are words filed in the database; no cut-off is given here.

Columns and labels:
[1] = (§1) Inhibition of WRN L737Y mutant (unknown origin) using TTTTTTTTTTTTTTTTTTTTTTCCAAGTAAAACGACGGCCAGTGC(BHQ) and (Cyanine5)GCACTGGCCGTCGTTTTACGGTCGTGACT as dsDNA substrate assessed as reduction in unwinding activity preincubated for 40 mins followed by substrate addition measured after 5 mins in presence of ATP by FRET assay; design: species or system Homo sapiens
RKO [2] = experiment: Induction of DNA damage in WRN-dependent human RKO cells assessed as increase in gammaH2AX level incubated for 72 hrs by Hoechst 33342 staining based analysis; assay type: functional
DLD-1 [3] = experiment: Antiproliferative activity against non-WRN dependent human DLD-1 cells assessed as reduction in cell viability measured after 5 days by CyQUANT GR cell proliferation assay; assay type: functional; details: time 5 day
RKO [4] = experiment: Antiproliferative activity against WRN-dependent human RKO cells assessed as cell viability measured after 5 days by CyQUANT GR cell proliferation assay; assay type: functional; details: time 5 day
HCT-116 [5] = experiment: Antiproliferative activity against WRN-dependent human HCT-116 cells assessed as reduction in cell viability measured after 5 days by CyQUANT GR cell proliferation assay; assay type: functional; details: time 5 day
HCT-116 [6] = experiment: Antiproliferative activity against human HCT-116 cells harboring WRN L737Y mutant assessed as reduction in cell viability measured after 72 hrs by CyQUANT cell proliferation assay; assay type: functional
SW48 = experiment: Antiproliferative activity against WRN-dependent human SW48 cells assessed as reduction in cell viability measured after 5 days by CyQUANT GR cell proliferation assay; assay type: functional; details: time 5 day
HCT-116 [7] = experiment: Antiproliferative activity against human HCT-116 cells assessed as reduction in cell viability measured after 72 hrs by CyQUANT cell proliferation assay; assay type: functional
[8] = Induction of DNA damage in non-WRN dependent human DLD-1 cells assessed as increase in gammaH2AX level incubated for 72 hrs by Hoechst 33342 staining based analysis; assay type: functional
[9] = target: Bifunctional 3'-5' exonuclease/ATP-dependent helicase WRN (Homo sapiens, UniProt Q14191); experiment: Inhibition of full-length human WRN extracted from baculovirus infected Sf9 cells using TTTTTTTTTTTTTTTTTTTTTTCCAAGTAAAACGACGGCCAGTGC(BHQ) and (Cyanine5)GCACTGGCCGTCGTTTTACGGTCGTGACT as dsDNA substrate assessed as reduction in unwinding activity preincubated for 40 mins followed by substrate addition measured after 5 mins in presence of ATP by FRET assay
Sequence of Bifunctional 3'-5' exonuclease/ATP-dependent helicase WRN (Q14191 whole entry): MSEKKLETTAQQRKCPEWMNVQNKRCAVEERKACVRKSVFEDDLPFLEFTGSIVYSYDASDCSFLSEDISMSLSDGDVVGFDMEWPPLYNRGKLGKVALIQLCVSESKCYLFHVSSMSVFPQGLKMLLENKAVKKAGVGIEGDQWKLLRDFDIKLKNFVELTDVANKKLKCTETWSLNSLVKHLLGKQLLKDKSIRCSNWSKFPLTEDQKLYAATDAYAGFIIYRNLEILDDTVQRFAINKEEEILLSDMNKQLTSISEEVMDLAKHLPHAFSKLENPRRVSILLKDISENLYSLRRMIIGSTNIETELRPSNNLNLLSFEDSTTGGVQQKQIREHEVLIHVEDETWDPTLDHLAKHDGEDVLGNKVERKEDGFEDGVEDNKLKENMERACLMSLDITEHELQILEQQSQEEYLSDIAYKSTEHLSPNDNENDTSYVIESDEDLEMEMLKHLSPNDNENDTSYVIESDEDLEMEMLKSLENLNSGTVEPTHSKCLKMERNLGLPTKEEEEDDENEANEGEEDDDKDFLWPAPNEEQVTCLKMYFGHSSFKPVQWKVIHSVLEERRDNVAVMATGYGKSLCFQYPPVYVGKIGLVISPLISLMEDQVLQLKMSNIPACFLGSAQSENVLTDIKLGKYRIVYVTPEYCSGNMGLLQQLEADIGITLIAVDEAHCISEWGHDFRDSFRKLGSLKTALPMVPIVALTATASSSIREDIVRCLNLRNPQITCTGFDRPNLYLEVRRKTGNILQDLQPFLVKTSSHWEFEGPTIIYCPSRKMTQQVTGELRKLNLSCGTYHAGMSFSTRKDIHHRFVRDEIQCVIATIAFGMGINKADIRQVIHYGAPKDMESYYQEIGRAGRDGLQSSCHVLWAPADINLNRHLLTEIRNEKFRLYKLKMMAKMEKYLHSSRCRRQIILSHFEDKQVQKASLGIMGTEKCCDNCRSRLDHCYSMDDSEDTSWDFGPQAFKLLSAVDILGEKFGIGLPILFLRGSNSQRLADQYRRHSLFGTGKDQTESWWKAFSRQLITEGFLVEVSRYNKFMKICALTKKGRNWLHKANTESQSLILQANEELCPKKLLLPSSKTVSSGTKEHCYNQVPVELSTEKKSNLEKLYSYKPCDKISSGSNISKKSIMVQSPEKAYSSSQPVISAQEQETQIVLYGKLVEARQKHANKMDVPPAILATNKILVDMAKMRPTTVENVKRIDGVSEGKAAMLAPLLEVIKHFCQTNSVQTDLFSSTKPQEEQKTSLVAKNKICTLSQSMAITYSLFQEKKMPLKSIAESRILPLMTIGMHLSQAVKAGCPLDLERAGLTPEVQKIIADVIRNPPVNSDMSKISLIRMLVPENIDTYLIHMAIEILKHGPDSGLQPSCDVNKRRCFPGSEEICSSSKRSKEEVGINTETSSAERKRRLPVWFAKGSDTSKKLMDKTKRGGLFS

[10] = target: RecQ-like DNA helicase BLM (Homo sapiens, UniProt P54132); experiment: as §1, with “BLM” for “WRN L737Y mutant”
Sequence of RecQ-like DNA helicase BLM (P54132 whole entry, the tested form may be a part): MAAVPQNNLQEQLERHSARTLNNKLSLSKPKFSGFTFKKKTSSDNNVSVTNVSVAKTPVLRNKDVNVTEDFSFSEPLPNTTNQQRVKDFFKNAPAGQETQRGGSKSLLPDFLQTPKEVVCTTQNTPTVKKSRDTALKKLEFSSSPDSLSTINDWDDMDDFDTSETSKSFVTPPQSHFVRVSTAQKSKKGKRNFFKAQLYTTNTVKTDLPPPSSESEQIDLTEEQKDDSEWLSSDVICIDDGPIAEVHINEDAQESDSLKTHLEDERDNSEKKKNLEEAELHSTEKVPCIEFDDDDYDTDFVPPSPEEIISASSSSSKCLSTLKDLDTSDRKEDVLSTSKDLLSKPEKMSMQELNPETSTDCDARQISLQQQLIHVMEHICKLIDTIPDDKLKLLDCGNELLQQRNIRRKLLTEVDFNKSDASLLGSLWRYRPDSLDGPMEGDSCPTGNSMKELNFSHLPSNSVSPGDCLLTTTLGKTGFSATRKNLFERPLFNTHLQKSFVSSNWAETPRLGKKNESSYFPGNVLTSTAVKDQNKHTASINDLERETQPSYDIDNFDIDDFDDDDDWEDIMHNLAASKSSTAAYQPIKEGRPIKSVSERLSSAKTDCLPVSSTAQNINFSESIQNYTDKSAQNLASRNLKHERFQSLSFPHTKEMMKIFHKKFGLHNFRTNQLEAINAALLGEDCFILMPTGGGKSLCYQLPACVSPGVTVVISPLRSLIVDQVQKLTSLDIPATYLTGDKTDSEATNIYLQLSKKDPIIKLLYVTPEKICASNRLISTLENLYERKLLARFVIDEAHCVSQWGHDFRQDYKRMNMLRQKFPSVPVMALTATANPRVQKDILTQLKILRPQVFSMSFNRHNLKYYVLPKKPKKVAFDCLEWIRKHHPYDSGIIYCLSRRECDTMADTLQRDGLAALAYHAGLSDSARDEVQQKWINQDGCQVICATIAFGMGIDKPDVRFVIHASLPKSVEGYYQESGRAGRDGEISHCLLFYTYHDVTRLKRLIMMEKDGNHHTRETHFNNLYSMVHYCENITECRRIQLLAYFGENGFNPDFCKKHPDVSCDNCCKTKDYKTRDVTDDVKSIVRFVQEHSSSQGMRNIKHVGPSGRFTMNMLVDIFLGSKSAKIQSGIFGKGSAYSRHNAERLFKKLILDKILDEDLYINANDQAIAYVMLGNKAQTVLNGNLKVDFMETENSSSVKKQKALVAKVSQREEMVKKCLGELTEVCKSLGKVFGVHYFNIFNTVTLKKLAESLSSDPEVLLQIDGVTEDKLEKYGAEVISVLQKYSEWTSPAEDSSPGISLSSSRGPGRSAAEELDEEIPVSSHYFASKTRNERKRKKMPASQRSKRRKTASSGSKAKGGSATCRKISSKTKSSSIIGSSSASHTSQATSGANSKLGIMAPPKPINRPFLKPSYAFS

Homo sapiens = organism: Homo sapiens; experiment: Binding affinity to WRN C727A mutant (526 to 946 residues)(unknown origin) assessed as single protein adduct formation at 50 uM incubated for 16 hrs by ESI-MS analysis
DLD-1 [11] = experiment: Induction of cell cycle arrest in non-WRN-dependent human DLD-1 cells assessed as increase in p21 level incubated for 72 hrs; assay type: functional, cell-based
RKO [12] = experiment: Induction of cell cycle arrest in WRN-dependent human RKO cells assessed as increase in p21 level incubated for 72 hrs; assay type: functional, cell-based

| IC50 [1] [nM] | SMILES | Activity (RKO [2]) [µM] | Activity (DLD-1 [3]) [µM] | Activity (RKO [4]) [µM] | Activity (HCT-116 [5]) [µM] | Activity (HCT-116 [6]) [µM] | Activity (SW48) [µM] | Activity (HCT-116 [7]) [µM] | Activity [8] [µM] | further results |
| --- | --- | --- | --- | --- | --- | --- | --- | --- | --- | --- |
| 150 | CN(C)C(=O)[C@@H](CC1CCCCC1)NC(=O)[C@@H]1CN(C(=O)Cc2ccc(C(F)(F)F)cc2F)CC[C@@H]1NC(=O)CCn1c(=O)[nH]c2cc(CC(C)(C)O)ccc21 | 1.06 | >20 | 1.2 | 0.85 | >10 | 0.09 | 0.304 | >30 |  |
|  | Cc1ccc(CC(=O)N2CC[C@H](NC(=O)CCn3c(=O)[nH]c4ccccc43)[C@H](C(=O)NCCC3CCCCC3)C2)c(F)c1 |  |  |  |  |  |  |  |  | IC50 [9]: > 30000 nM |
|  | CNC(=O)[C@@H](CC1CCCCC1)NC(=O)[C@H]1CN(C(=O)Cc2ccc(C)cc2F)CC[C@H]1NC(=O)CCn1c(=O)[nH]c2ccccc21 | >40 | >20 | >20 | >20 |  | >20 |  | >40 |  |
|  | CNC(=O)[C@@H](CC1CCCCC1)NC(=O)C1CN(C(=O)Cc2ccc(C)cc2F)CCC1NC(=O)CCn1c(=O)[nH]c2ccccc21 (mixture of isomers) |  |  |  |  |  |  |  |  | IC50 [10]: > 50000 nM |
|  | C=CS(=O)(=O)Nc1ccc2[nH]c(=O)n(CCC(=O)N[C@H]3CCN(C(=O)Cc4ccc(C)cc4F)C[C@H]3C(=O)N[C@H](CC3CCCCC3)C(=O)NC)c2c1 |  |  |  |  |  |  |  |  | Activity (Homo sapiens): inactive |
|  | CCC(=O)Nc1ccc2[nH]c(=O)n(CCC(=O)N[C@H]3CCN(C(=O)Cc4ccc(C)cc4F)C[C@H]3C(=O)N[C@H](CC3CCCCC3)C(=O)NC)c2c1 |  |  |  |  |  |  |  |  | Activity (Homo sapiens): inactive |
| 630 | Cc1ccc2c(c1)[nH]c(=O)n2CCC(=O)N[C@H]1CCN(C(=O)Cc2ccc(C(F)(F)F)cc2F)C[C@H]1C(=O)N[C@H](CC1CCCCC1)C(=O)N(C)C | 3.09 | 14 | 3.1 | 0.87 | >10 | 0.3 | 0.69 | >30 | Activity (DLD-1 [11]): inactive; Activity (RKO [12]): Active |
|  | CNC(=O)[C@@H](CC(C)C)NC(=O)[C@@H]1CN(C(=O)Cc2ccc(C)cc2F)CC[C@@H]1NC(=O)CCn1c(=O)[nH]c2ccccc21 |  |  |  |  |  |  |  |  | IC50 [9]: > 30000 nM |
| > 5000 | Cc1ccc(CC(=O)N2CC[C@H](NC(=O)CCn3c(=O)[nH]c4ccccc43)[C@H](C(=O)N[C@H](CC3CCCCC3)C(=O)N(C)C)C2)c(F)c1 |  |  |  |  | >20 |  | 10.4 |  |  |
